The target in this assay is T1, human 5-HT1A receptor (Homo sapiens, UniProt P08908).
T1 construct: expressed in transfected cells; host or cells: CHO-K1
T1 sequence (P08908 1-422): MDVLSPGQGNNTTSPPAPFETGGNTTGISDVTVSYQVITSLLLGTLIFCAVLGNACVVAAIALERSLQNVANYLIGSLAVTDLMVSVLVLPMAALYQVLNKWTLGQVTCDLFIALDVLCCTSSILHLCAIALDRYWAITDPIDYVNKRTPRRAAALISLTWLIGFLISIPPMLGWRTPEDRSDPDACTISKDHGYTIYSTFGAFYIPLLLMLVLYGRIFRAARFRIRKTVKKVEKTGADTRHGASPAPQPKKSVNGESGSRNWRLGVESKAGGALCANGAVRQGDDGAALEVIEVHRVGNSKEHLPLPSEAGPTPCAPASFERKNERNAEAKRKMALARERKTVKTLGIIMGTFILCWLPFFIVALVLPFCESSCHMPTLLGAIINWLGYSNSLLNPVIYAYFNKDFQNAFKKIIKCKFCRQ
The assay is described as follows: 5-HT1A receptor binding ([3H]8-hydroxy-DPAT displacement, CHO-K1 membranes). Here is the method:
Because the 5-HT1A receptor is a commonly observed off-site binding site for benzamide N-phenylpiperazine ligands, compounds were simultaneously screened for binding of our compounds at the human 5-HT1A receptor expressed in CHO-K1 cells, using the radioligand [^3H]-8-hydroxy-DPAT (8-OH-DPAT) (Table 2). Based upon the analysis of the displacement assay shown in Table 2, the orthosteric compounds 3c–f appeared to bind with low affinity at human 5-HT1A receptors.
10 μg of membranes from CHO-K1 cells expressing the human 5-HT1A receptor were suspended in 50 mM Tris-HCl, 10 mM MgSO4, 0.5 mM EDTA, and 0.1% (w/v) ascorbic acid, pH 7.4 and test ligands (91 nM for single point radioligand displacement assay and 1 nM to 1 μM for full competition assay) were incubated with 0.25 nM [^3H]8-hydroxy-DPAT (PerkinElmer, Boston, MA, USA) for 60 min at room temperature. The nonspecific binding was determined using 10 μM metergoline (Sigma, St. Louis, MO, USA). After incubation, the bound ligands were filtered using an M-24 Brandel filtration system (Brandel, Gaithersburg, MD, USA), collected on glass fiber papers (Whatman grade 934-AH, GE Healthcare Bio-Sciences, Pittsburgh, PA, USA), and the radioactivity was quantitated using a MicroBeta2 Microplate scintillation counter 2450 (PerkinElmer, Boston, MA, USA).

What is called Ki is the equilibrium dissociation constant of an inhibitor or competing ligand from its target. Usually inhibition stands for the drop in the measured response relative to a control, in per cent. In the case of `O=C(NCCCCN1CCN(c2ccccc2F)CC1)c1ccc(-c2ccsc2)cc1` [Compound 6a], the “5-HT1A affinity lower than D3 affinity” value (5-HT1A Ki vs. D3 Ki) is “approximately 140 fold”. Further, the Ki (full competition curve, [3H]-8-hydroxy-DPAT, at least three experiments, read-out: Ki at 5-HT1A receptor) amounted to 199 nM. Moreover, where the note is “radioligand displacement assessment at 91 nM”, the “5-HT1A receptor affinity/displacement in words” value is “decreased binding affinity”. Under “single point displacement of [3H]-8-hydroxy-DPAT, 91 nM test compound, CHO-K1, ± S.E.M., n ≥ 3”, the inhibition at 0.091 µM was -3.3 ± 15.1%.

The record behind these values is paper PMC8198181, “Evaluation of Substituted N-Phenylpiperazine Analogs as D3 vs. D2 Dopamine Receptor Subtype Selective Ligands” (Molecules, 2021).
